# pIC50: −log10 of the molar value.
# What was measured:
# [1] = system: Androgen-induced PSA-luciferase; assay: Androgen-induced PSA (6.1 kb)-luciferase reporter assay in LNCaP cells; assay type: cell-based; conditions: Homo sapiens, R1881 1 nM, 24 h
# Experimental: To determine the IC50, treatments were normalized to the maximum activity with androgen-induction (in the absence of test compounds, vehicle only) (Table 1).
# Luciferase Assay: Lysates were thawed on ice then collected into V-bottom 96-well tissue culture plates. Lysates were centrifuged at 4° C. for 5 minutes at 4000 rpm. To measure luminescence of LNCaP cell lysates the Firefly Luciferase Assay System (Promega) was employed, according to manufacturer's protocol.
# Comparisons between treatment and control groups were compared using Two-Way ANOVA with post-hoc Dunnett's and Tukey's tests. Differences were considered statistically significant at P values less than 0.05. Densitometric quantification of relative AR levels was determined by Image.
# [2] = system: androgen responsive genes in LNCaP cells; assay: mRNA expression of androgen responsive genes in LNCaP cells (NanoString Androgen Receptor/Prostate Cancer gene panel)
# [3] = system: AR full-length and AR V7 driven genes in LNCaP95 cells; assay: mRNA expression of androgen responsive genes in LNCaP95 (+R1881) cells (NanoString Androgen Receptor/Prostate Cancer gene panel)
# Experimental: Relative mRNA expression in LNCaP95 (+R1881) was measured for Canonical AR target genes (FIG. 9A) and AR V7-activated genes (FIG. 9B).
# Data shown in FIGS. 8A-8B and 9A-9B and Table 5 were generated using NanoString Androgen Receptor/Prostate Cancer gene panel.
# [4] = system: VCaP tumors; assay: VCaP xenograft model, castrated male SCID Beige mice; assay type: in vivo; conditions: oral, castrated male SCID Beige mice (FIGS. 1-4)
# Experimental: Tumor growth was measured in male SCID Beige mice bearing VCaP tumors. […] Individual tumor volume change from baseline measured on day 17 of the experiment (FIGS. 2A-2B). Serum prostate-specific antigen (PSA) was measured in mice at the end of each treatment (FIG. 3). Body weight of the mice were captured biweekly in the animals and normalized to baseline (FIG. 4).
structure (smiles),measurement,setting,value
CCS(=O)(=O)Nc1nc(COc2ccc(C(C)(C)c3cc(Cl)c(OCCCl)c(C#N)c3)cc2)co1 [Compound A126],pIC50,[1],6.20
"CC(C)(c1ccc(OCc2coc(NS(C)(=O)=O)n2)cc1)c1cc(Cl)c(OCCCl)c(Cl)c1 [Compound A38, N-(4-((4-(2-(3,5-dichloro-4-(2-chloroethoxy)phenyl)propan-2-yl)phenoxy)methyl)oxazol-2-yl)methanesulfonamide]",pIC50,[1],6.20
"CC(Oc1ccc(C(C)(C)c2cc(Cl)c(OCCCl)c(Cl)c2)cc1)c1ocnc1S(C)(=O)=O (centres unmarked) [Compound A35, 5-(1-(4-(2-(3,5-dichloro-4-(2-chloroethoxy)phenyl)propan-2-yl)phenoxy)ethyl)-4-(methylsulfonyl)oxazole]",pIC50,[1],6.29
Cc1cc(C(C)(C)c2ccc(OCc3ocnc3S(C)(=O)=O)cc2)cc(C#N)c1OCCCl [Compound A29],pIC50,[1],6.33
CC(C)(c1ccc(OCc2ccnc(NS(C)(=O)=O)n2)cc1)c1cc(Cl)c(OCCCl)c(Cl)c1 [Compound A74],pIC50,[1],6.18
"CC(C)(c1ccc(OCc2ocnc2S(C)(=O)=O)cc1)c1cc(Cl)c(OCCCl)c(Cl)c1 [Compound A13, 5-((4-(2-(3,5-dichloro-4-(2-chloroethoxy)phenyl)propan-2-yl)phenoxy)methyl)-4-(methylsulfonyl)oxazole]",pIC50,[1],6.23
"CC(C)(c1ccc(OCc2ccnc(NS(C)(=O)=O)n2)cc1)c1cc(Cl)c(OCCCl)c(C#N)c1 [Compound A109, N-(4-((4-(2-(3-chloro-4-(2-chloroethoxy)-5-cyanophenyl)propan-2-yl)phenoxy)methyl)pyrimidin-2-yl)methanesulfonamide]","response in the androgen response genes FKBP5, TMPRSS2, KLK2, KLK3, and NKX3.1 (relative mRNA expression)","[2]; LNCaP cells, FIG. 6A",dose-dependent response
same,Log2Fold Change ACSL3,"[2]; LNCaP, 7.5 μM single agent",−3.62
same,Log2Fold Change AKAP12,"[2]; LNCaP, 7.5 μM single agent",−3.84
same,Log2Fold Change CDC6,"[2]; LNCaP, 7.5 μM single agent",−3.60
same,Log2Fold Change CENPN,"[2]; LNCaP, 7.5 μM single agent",−2.13
same,Log2Fold Change EAF2,"[2]; LNCaP, 7.5 μM single agent",−3.81
same,Log2Fold Change ELL2,"[2]; LNCaP, 7.5 μM single agent",−3.05
same,Log2Fold Change ERRFI1,"[2]; LNCaP, 7.5 μM single agent",−2.76
same,Log2Fold Change FAM105A,"[2]; LNCaP, 7.5 μM single agent",−2.78
same,Log2Fold Change FKBP5,"[2]; LNCaP, 7.5 μM single agent",−4.47
same,Log2Fold Change KLK2,"[2]; LNCaP, 7.5 μM single agent",−2.71
same,Log2Fold Change KLK3,"[2]; LNCaP, 7.5 μM single agent",−2.42
same,Log2Fold Change NCAPD3,"[2]; LNCaP, 7.5 μM single agent",−4.40
same,Log2Fold Change NDRG1,"[2]; LNCaP, 7.5 μM single agent",−4.17
same,Log2Fold Change NKX3-1,"[2]; LNCaP, 7.5 μM single agent",−2.28
same,Log2Fold Change PLPP1,"[2]; LNCaP, 7.5 μM single agent",−3.53
same,Log2Fold Change PMEPA1,"[2]; LNCaP, 7.5 μM single agent",−2.16
same,Log2Fold Change RHOU,"[2]; LNCaP, 7.5 μM single agent",−3.03
same,Log2Fold Change SNAI2,"[2]; LNCaP, 7.5 μM single agent",−1.79
same,Log2Fold Change STEAP4,"[2]; LNCaP, 7.5 μM single agent",−4.22
same,Log2Fold Change TMPRSS2,"[2]; LNCaP, 7.5 μM single agent",−3.32
same,modulation of androgen receptor full-length driven genes,"[2]; LNCaP, FIGS. 5A-5B and Table 4",can modulate androgen receptor0 full-length driven genes similar to enzalutamide
same,log2 Fold Change ADAMTS1,[3]; 7.5 μM,−3.96
same,log2 Fold Change CCND1,[3]; 7.5 μM,−3.96
same,log2 Fold Change FKBP5,[3]; 7.5 μM,−4.18
same,log2 Fold Change KLK2,[3]; 7.5 μM,−5.07
same,log2 Fold Change KLK3,[3]; 7.5 μM,−5.48
same,log2 Fold Change NCAPD3,[3]; 7.5 μM,−3.8
same,log2 Fold Change NDRG1,[3]; 7.5 μM,−4.47
same,log2 Fold Change NKX3-1,[3]; 7.5 μM,−4.23
same,log2 Fold Change PMEPA1,[3]; 7.5 μM,−3.93
same,log2 Fold Change PRR15L,[3]; 7.5 μM,−3.89
same,modulation of AR full-length and AR V7 driven genes,[3]; FIGS. 8A-8B and 9A-9B,can modulate AR full-length and AR V7 driven genes
same,pIC50,[1],6.27
same,anti-tumor response,[4]; in combination with enzalutamide,excellent anti-tumor response
same,anti-tumor response,[4]; monotherapy,excellent anti-tumor response
CC(C)(c1ccc(OCc2nc(S(C)(=O)=O)cs2)cc1)c1cc(Cl)c(OCCCl)c(C#N)c1 [Compound A136],pIC50,[1],6.22
"CC(O)c1cc(C(=O)N[C@@H](C)Cn2ccc(-c3ccc(C#N)c(Cl)c3)n2)[nH]n1 (some centres unmarked) [Darolutamide, darolutamide, reference compound]",activity on gene expression in LNCaP,"[2]; LNCaP cells, FIG. 7A-7B",not very active
CC(C)(c1ccc(OCc2ocnc2S(C)(=O)=O)cc1)c1cc(Cl)c(OCCCl)c(C#N)c1 [Compound A28],pIC50,[1],6.40
CC(C)(c1ccc(OCc2ncc(S(C)(=O)=O)s2)cc1)c1cc(Cl)c(OCCCl)c(C#N)c1 [Compound A93],pIC50,[1],6.69
Cc1cnc(NS(C)(=O)=O)nc1COc1ccc(C(C)(C)c2cc(Cl)c(OCCCl)c(C#N)c2)cc1 [Compound A122],pIC50,[1],6.59
CCS(=O)(=O)Nc1nccc(COc2ccc(C(C)(C)c3cc(Cl)c(OCCCl)c(C#N)c3)cc2)n1 [Compound A131],pIC50,[1],5.96
C[C@H](Oc1ccc(C(C)(C)c2cc(Cl)c(OCCCl)c(Cl)c2)cc1)c1ccnc(NS(C)(=O)=O)n1 [Compound A170],pIC50,[1],6.19
CC(C)(c1ccc(OCc2ncc(S(C)(=O)=O)o2)cc1)c1cc(Cl)c(OCCCl)c(Cl)c1 [Compound A66],pIC50,[1],6.05
